# Measurements as given in patent US5248667A, “Method of treating psoriasis using synthetic peptide compositions” (The United States of America as represented by the …, priority 1991, dated 1993).
# Tested on: normal volunteers
# Test: CNS or immunologic toxicity in volunteers
# Format: in vivo, human
# Details: all patients / normal volunteers
# Experimental: 1. 6 male research subjects with histories of substance abuse, childhood dyslexia, and depression, have received Peptide T intravenously in doses ranging from 0.033 mg/kg to 0.133 mg/kg per day for seven days.
# 2. a WM HIV seronegative normal volunteer received Peptide T both intranasally and sublingually at 12.5 mg BID for one week coincidentally reported improvement in multiple red, scaling pruritic areas located in scalp and lower neck areas. This individual has a history of mild psoriasis which, by personal choice, has been treated with only topical treatments including hydrocortisone, coal tar derivatives, and calamine lotion.
# 3. No evidence of either CNS or immunologic toxicity associated with drug administration was aobserved in any of these patients in any of these normal volunteers.
smiles,measurement,value
"C[C@@H](N)C(=O)N[C@@H](CO)C(=O)N[C@H](C(=O)N[C@H](C(=O)N[C@H](C(=O)N[C@@H](CC(N)=O)C(=O)N[C@@H](Cc1ccc(O)cc1)C(=O)N[C@H](C(N)=O)[C@@H](C)O)[C@@H](C)O)[C@@H](C)O)[C@@H](C)O [Peptide T, D-Ala-Ser-Thr-Thr-Thr-Asn-Tyr-Thr-amide]",CNS or immunologic toxicity associated with drug administration,No evidence
